In one data set the target is T1, progesterone receptor (Homo sapiens, UniProt P06401).
T1 construct: determining a compound's effect on alkaline phosphatase activity in T47D cells; endogenous in cells; host or cells: T47D cells
T1 sequence (P06401 1-933): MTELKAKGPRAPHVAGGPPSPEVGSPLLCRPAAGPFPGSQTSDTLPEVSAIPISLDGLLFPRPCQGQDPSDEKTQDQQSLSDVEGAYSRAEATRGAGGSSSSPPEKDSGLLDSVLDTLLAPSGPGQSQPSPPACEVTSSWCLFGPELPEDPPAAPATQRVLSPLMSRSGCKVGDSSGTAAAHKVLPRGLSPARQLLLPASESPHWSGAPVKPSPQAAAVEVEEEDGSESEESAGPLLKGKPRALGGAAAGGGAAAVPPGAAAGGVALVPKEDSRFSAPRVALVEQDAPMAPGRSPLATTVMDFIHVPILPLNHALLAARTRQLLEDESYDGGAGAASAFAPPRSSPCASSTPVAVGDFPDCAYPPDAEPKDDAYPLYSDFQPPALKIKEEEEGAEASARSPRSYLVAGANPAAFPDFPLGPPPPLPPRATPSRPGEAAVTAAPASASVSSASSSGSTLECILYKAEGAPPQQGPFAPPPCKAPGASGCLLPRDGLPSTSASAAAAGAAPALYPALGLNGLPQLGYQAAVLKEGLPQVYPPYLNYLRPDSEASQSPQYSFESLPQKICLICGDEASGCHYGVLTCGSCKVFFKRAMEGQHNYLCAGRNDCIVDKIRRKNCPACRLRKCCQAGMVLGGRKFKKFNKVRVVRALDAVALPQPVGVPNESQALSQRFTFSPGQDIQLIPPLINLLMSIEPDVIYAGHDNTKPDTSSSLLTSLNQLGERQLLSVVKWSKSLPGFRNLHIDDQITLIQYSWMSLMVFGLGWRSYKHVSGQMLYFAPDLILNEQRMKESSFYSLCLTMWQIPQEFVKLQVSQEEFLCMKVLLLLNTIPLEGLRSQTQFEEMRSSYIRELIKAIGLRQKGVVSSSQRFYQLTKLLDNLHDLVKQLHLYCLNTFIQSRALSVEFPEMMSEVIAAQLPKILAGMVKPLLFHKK
Briefly: Effects of progestins and antiprogestins on alkaline phosphatase activity in T47D cells. The class given is cell-based. As to conditions: antagonist mode in the presence of 1 nM progesterone, 24 h, read-out: T47D Alkaline Phosphatase Activity IC50 (nM) or % inhibition. The method, then: (1) Effects of Progestins and Antiprogestins on Alkaline Phosphatase Activity in T47D Cells
PURPOSE: To identify progestins or antiprogestins by determining a compound's effect on alkaline phosphatase activity in T47D cells.
Culture Medium: • DMEM:F12 (1:1) (GIBCO, BRL) supplemented with 5% (v/v) charcoal stripped fetal bovine serum (not heat-inactivated), 100 U/mL penicillin, 100 μg/mL streptomycin, and 2 mM the GlutaMax™ reagent (GEBCO, BRL).
Alkaline phosphatase assay buffer: • I. 0.1M Tris-HCl, pH 9.8, containing 0.2% the Triton® X-100 reagent • II. 0.1M Tris-HCl, pH 9.8, containing 4 mM p-nitrophenyl phosphate (Sigma). B. Cell Culture and Treatment:
Frozen T47D cells were thawed in a 37° C. water bath and diluted to 280,000 cells/mL in culture medium. To each well in a 96-well plate (Falcon, Becton Dickinson Labware), 180 μL of diluted cell suspension was added.
Twenty μL of reference or test compounds diluted in the culture medium was then added to each well. […]
For reference and test compounds, a dose response curve was generated for dose (X-axis) vs. the rate of enzyme reaction (slope) (Y-axis). […] EC50 or IC50 values were calculated from the retransformed values. […]
Progesterone and trimegestone were reference progestins and RU486 was the reference antiprogestin. All reference compounds were run in full dose response curves and the EC50 and IC50 values were calculated.

SMILES strings stand for the structures.

Broadly, the melting point is the temperature of the solid-liquid transition. A word on the IC50: it is the concentration that inhibits the measured activity by half. `CC1(C)COC(=O)N(c2nc(-c3ccc(Br)cc3)cs2)C1` [Example 4, 3-[4-(4-Bromophenyl)-1,3-thiazol-2-yl]-5,5-dimethyl-1,3-oxazinan-2-one] had a melting point of 169 to 171 °C. For the same compound, the IC50 at progesterone receptor is 1370 nM. The corresponding values for `O=C1OCCCN1c1nc(-c2ccc(Br)cc2)cs1` [Example 3, 3-[4-(4-Bromophenyl)-1,3-thiazol-2-yl]-1,3-oxazinan-2-one] are 225 to 227 °C and 238 nM. `C[C@@H]1COC(=O)N1c1nc(-c2ccc(Br)cc2)cs1` [Example 1, (4R)-3-[4-(4-Bromophenyl)-1,3-thiazol-2-yl]-4-methyl-1,3-oxazolidin-2-one]: the melting point fell in the range of 197 to 199 °C. Still for that read-out and setting: for `CCC[C@@H]1COC(=O)N1c1nc(-c2ccc(Br)cc2)cs1` [Example 2, (4R)-3-[4-(4-Bromophenyl)-1,3-thiazol-2-yl]-4-propyl-1,3-oxazolidin-2-one] the value was 114 to 116 °C.

These data come from patent US7538107B2, “Oxazinan-2-one derivatives useful as PR modulators” (Wyeth, priority 2006, dated 2009).
